Results published in the NIST ThermoML archive (doi:10.1021/acs.jced.7b00106).
“And” between values parts separate entries of the source, which are not always exact repeats. Equal entries are not always repeated.

Conditions: Hot wire method

FC(F)(F)/C=C/Cl [(E)-1-chloro-3,3,3-trifluoroprop-1-ene]
Conditions | thermal conductivity
401.56 K, 1795 kPa, Fluid (supercritical or subcritical phases) | 0.02087 W/m/K
401.57 K, 1795 kPa, Fluid (supercritical or subcritical phases) | 0.02094 W/m/K
401.58 K, 1514 kPa, Fluid (supercritical or subcritical phases) | 0.01985 W/m/K
401.58 K, 1515 kPa, Fluid (supercritical or subcritical phases) | 0.01989 W/m/K
401.61 K, 1407 kPa, Fluid (supercritical or subcritical phases) | 0.01962 W/m/K
401.62 K, 1407 kPa, Fluid (supercritical or subcritical phases) | 0.01968 W/m/K
401.65 K, 1306 kPa, Fluid (supercritical or subcritical phases) | 0.01952 W/m/K
401.65 K, 1307 kPa, Fluid (supercritical or subcritical phases) | 0.01951 W/m/K
401.67 K, 1716 kPa, Fluid (supercritical or subcritical phases) | 0.02063 W/m/K
401.69 K, 1203 kPa, Fluid (supercritical or subcritical phases) | 0.01937 W/m/K and 0.01933 W/m/K
401.71 K, 1106 kPa, Fluid (supercritical or subcritical phases) | 0.01926 W/m/K
401.72 K, 1106 kPa, Fluid (supercritical or subcritical phases) | 0.01925 W/m/K
401.72 K, 1623 kPa, Fluid (supercritical or subcritical phases) | 0.0203 W/m/K
401.73 K, 1623 kPa, Fluid (supercritical or subcritical phases) | 0.02026 W/m/K
401.75 K, 847 kPa, Fluid (supercritical or subcritical phases) | 0.01914 W/m/K
401.75 K, 1000 kPa, Fluid (supercritical or subcritical phases) | 0.01916 W/m/K
401.75 K, 1001 kPa, Fluid (supercritical or subcritical phases) | 0.01919 W/m/K
401.76 K, 846 kPa, Fluid (supercritical or subcritical phases) | 0.01915 W/m/K
401.76 K, 1795 kPa, Fluid (supercritical or subcritical phases) | 0.02102 W/m/K
401.76 K, 1796 kPa, Fluid (supercritical or subcritical phases) | 0.02099 W/m/K
401.78 K, 1514 kPa, Fluid (supercritical or subcritical phases) | 0.0199 W/m/K
401.79 K, 1515 kPa, Fluid (supercritical or subcritical phases) | 0.01993 W/m/K
401.82 K, 1408 kPa, Fluid (supercritical or subcritical phases) | 0.01967 W/m/K
401.83 K, 1407 kPa, Fluid (supercritical or subcritical phases) | 0.01973 W/m/K
401.84 K, 675 kPa, Fluid (supercritical or subcritical phases) | 0.01911 W/m/K
401.86 K, 1307 kPa, Fluid (supercritical or subcritical phases) | 0.01952 W/m/K
401.87 K, 1716 kPa, Fluid (supercritical or subcritical phases) | 0.02077 W/m/K
401.88 K, 1715 kPa, Fluid (supercritical or subcritical phases) | 0.02074 W/m/K
401.91 K, 1202 kPa, Fluid (supercritical or subcritical phases) | 0.01943 W/m/K
401.91 K, 1203 kPa, Fluid (supercritical or subcritical phases) | 0.01941 W/m/K
401.93 K, 1622 kPa, Fluid (supercritical or subcritical phases) | 0.02034 W/m/K
401.94 K, 1105 kPa, Fluid (supercritical or subcritical phases) | 0.01929 W/m/K
401.94 K, 1106 kPa, Fluid (supercritical or subcritical phases) | 0.01933 W/m/K
401.94 K, 1624 kPa, Fluid (supercritical or subcritical phases) | 0.02037 W/m/K
401.96 K, 1796 kPa, Fluid (supercritical or subcritical phases) | 0.02117 W/m/K
401.97 K, 1000 kPa, Fluid (supercritical or subcritical phases) | 0.01921 W/m/K
401.97 K, 1001 kPa, Fluid (supercritical or subcritical phases) | 0.01922 W/m/K
401.97 K, 1796 kPa, Fluid (supercritical or subcritical phases) | 0.02115 W/m/K
401.99 K, 847 kPa, Fluid (supercritical or subcritical phases) | 0.01917 W/m/K
402 K, 845 kPa, Fluid (supercritical or subcritical phases) | 0.01916 W/m/K
402 K, 1514 kPa, Fluid (supercritical or subcritical phases) | 0.01998 W/m/K and 0.02002 W/m/K
402.04 K, 1407 kPa, Fluid (supercritical or subcritical phases) | 0.01972 W/m/K
402.04 K, 1408 kPa, Fluid (supercritical or subcritical phases) | 0.01978 W/m/K
402.07 K, 1716 kPa, Fluid (supercritical or subcritical phases) | 0.02086 W/m/K and 0.02091 W/m/K
402.09 K, 674 kPa, Fluid (supercritical or subcritical phases) | 0.0192 W/m/K
402.09 K, 1306 kPa, Fluid (supercritical or subcritical phases) | 0.01958 W/m/K
402.09 K, 1307 kPa, Fluid (supercritical or subcritical phases) | 0.01963 W/m/K
402.12 K, 33574 kPa, Liquid | 0.0762 W/m/K
402.13 K, 1203 kPa, Fluid (supercritical or subcritical phases) | 0.01947 W/m/K
402.14 K, 1203 kPa, Fluid (supercritical or subcritical phases) | 0.01946 W/m/K
402.15 K, 1623 kPa, Fluid (supercritical or subcritical phases) | 0.02048 W/m/K
402.17 K, 1105 kPa, Fluid (supercritical or subcritical phases) | 0.01933 W/m/K and 0.01934 W/m/K
402.19 K, 1796 kPa, Fluid (supercritical or subcritical phases) | 0.02136 W/m/K and 0.02138 W/m/K
402.2 K, 24990 kPa, Liquid | 0.07177 W/m/K
402.2 K, 25009 kPa, Liquid | 0.07171 W/m/K
402.21 K, 1000 kPa, Fluid (supercritical or subcritical phases) | 0.01925 W/m/K
402.22 K, 1851 kPa, Liquid | 0.05439 W/m/K
402.22 K, 1852 kPa, Liquid | 0.05442 W/m/K
402.23 K, 846 kPa, Fluid (supercritical or subcritical phases) | 0.01918 W/m/K
402.23 K, 1515 kPa, Fluid (supercritical or subcritical phases) | 0.02013 W/m/K and 0.02014 W/m/K
402.24 K, 847 kPa, Fluid (supercritical or subcritical phases) | 0.01925 W/m/K
402.25 K, 13371 kPa, Liquid | 0.06482 W/m/K
402.26 K, 13368 kPa, Liquid | 0.06479 W/m/K
402.27 K, 1408 kPa, Fluid (supercritical or subcritical phases) | 0.01984 W/m/K and 0.01988 W/m/K
402.29 K, 21647 kPa, Liquid | 0.06986 W/m/K
402.29 K, 21648 kPa, Liquid | 0.06987 W/m/K
402.31 K, 1715 kPa, Fluid (supercritical or subcritical phases) | 0.02112 W/m/K and 0.02105 W/m/K
402.31 K, 28736 kPa, Liquid | 0.07366 W/m/K
402.31 K, 28755 kPa, Liquid | 0.0737 W/m/K
402.32 K, 5982 kPa, Liquid | 0.0589 W/m/K and 0.05892 W/m/K
402.32 K, 11080 kPa, Liquid | 0.06308 W/m/K
402.32 K, 11097 kPa, Liquid | 0.06313 W/m/K
402.33 K, 1306 kPa, Fluid (supercritical or subcritical phases) | 0.01962 W/m/K and 0.01976 W/m/K
